These molecules were tested against T1, alpha-amylase (Homo sapiens, UniProt P04746) (assay: In vitro alpha-amylase inhibition assay (EnzChek Ultra-Amylase-Assay Kit)).
T1 sequence (P04746 16-511): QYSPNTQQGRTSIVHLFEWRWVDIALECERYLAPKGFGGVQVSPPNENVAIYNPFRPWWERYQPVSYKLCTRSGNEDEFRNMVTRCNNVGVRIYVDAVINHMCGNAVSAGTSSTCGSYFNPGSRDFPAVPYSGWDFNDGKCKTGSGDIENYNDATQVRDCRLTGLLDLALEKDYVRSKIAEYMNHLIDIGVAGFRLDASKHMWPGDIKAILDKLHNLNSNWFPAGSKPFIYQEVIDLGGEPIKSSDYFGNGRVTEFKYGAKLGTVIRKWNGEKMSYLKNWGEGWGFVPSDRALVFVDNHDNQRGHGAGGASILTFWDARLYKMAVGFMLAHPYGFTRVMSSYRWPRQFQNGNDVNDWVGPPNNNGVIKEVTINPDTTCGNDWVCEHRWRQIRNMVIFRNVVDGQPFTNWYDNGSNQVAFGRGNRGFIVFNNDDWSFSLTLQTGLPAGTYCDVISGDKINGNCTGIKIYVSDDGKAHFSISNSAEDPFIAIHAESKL

| IC50 [µM] | Structure (SMILES) |
| --- | --- |
| 40.6 | COc1cc2oc3cc(O)c(OC)c(CC=C(C)C)c3c(=O)c2c(O)c1/C=C\C(C)(C)O [Compound 35, Mangostanaxanthone VIII] |
| 11.1 | CC(C)=CCc1c(O)cc2oc3c(O)c(O)c(O)c(CC=C(C)C)c3c(=O)c2c1O [Compound 40, Garcixanthone D] |
| 19.5 | CC(C)=CCc1c(O)cc2oc3cc(O)c(O)c(/C=C\C(C)(C)O)c3c(=O)c2c1O [Compound 31, Mangostanaxanthone VII] |
| 21.9 | CC(C)=CCc1c(O)cc2oc3c(/C=C\C(C)(C)O)c(O)c(O)c(CC=C(C)C)c3c(=O)c2c1O [Compound 30, Mangostanaxanthone VI] |
| 21.2 | CC(C)=CCc1c(O)c(CC=C(C)C)c2oc3c(O)ccc(O)c3c(=O)c2c1O [Compound 17, Gartanin] |
| 28.3 | COc1c(O)cc2oc3c(CC=C(C)CCC=C(C)C)c(O)cc(O)c3c(=O)c2c1CC=C(C)CCC=C(C)C [Compound 10, Mangostanaxanthone I] |
| 15.8 | O=C(c1cccc(O)c1)c1c(O)cc(O)cc1O[C@@H]1O[C@H](CO)[C@@H](O)[C@H](O)[C@H]1O [Compound 3, 2,4,3’-Trihydroxy benzophenone-6-O-β-D-glucopyranoside] |
| 11.9 | CC(C)=CCc1c(O)c(O)c(/C=C\C(C)(C)O)c2c(=O)c3c(O)c(/C=C\C(C)(C)O)c(O)cc3oc12 [Compound 29, Mangostanaxanthone V] |
| 7.1 | O=C(c1cc(O)c(O)cc1O)c1c(O)cc(O)cc1OC1OC(CO)C(O)C(O)C1O [Compound 8, 6-O-β-D-Glucopyranosyl-2,4,6,3′,4′,6′-hexahydroxybenzophenone] |
| 20.4 | CC(C)=CCc1c(O)cc2oc3c(CC=C(C)C)c(O)c4c(c3c(=O)c2c1O)C=CC(C)(C)O4 [Compound 23, Tovophyllin A] |
| 18.8 | CC(C)=CCc1c(O)cc2oc3c(CC=C(C)C)c(O)c(O)c(CC=C(C)C)c3c(=O)c2c1O [Compound 15, Garcinone E] |
| 8.9 | Oc1cc(O)c2c(c1)O[C@H](c1ccc(O)c(O)c1)[C@H](O)C2 [Compound 6, Epicatechin] |
| 10.4 | O=C(c1ccc(O)c(O)c1)c1c(O)cc(O)cc1O[C@@H]1O[C@H](CO)[C@@H](O)[C@H](O)[C@H]1O [Compound 4, Rhodanthenone] |
| 46.5 | COc1c(O)cc2oc3cc(O)c(/C=C\C(C)(C)O)c(O)c3c(=O)c2c1CC=C(C)C [Compound 28, Mangostanaxanthone IV] |
| 8.3 | O=C1c2c(O)cc(O)c([C@@H]3O[C@H](CO)[C@@H](O)[C@H](O)[C@H]3O)c2O[C@H](c2ccc(O)cc2)[C@H]1O [Compound 5, Aromadendrin-8-C-glucoside] |
| 12.8 | COc1ccc(C2Oc3c(c(O)cc(O)c3C3OC(CO)C(O)C(O)C3O)C(=O)C2O)cc1 [Compound 9, 2R,3R-5,7-Dihydroxy-8-C-β-D-glucopyranosyl-4-methoxy-2,3-dihydroflavon-3-ol] |
| 44.1 | COc1c(O)cc2oc3cc(O)c(CC=C(C)C)c(O)c3c(=O)c2c1CC=C(C)C [Compound 13, α-Mangostin] |
| 17.1 | CC(C)=CCc1c(O)c(C(=O)CC(C)(C)O)c2oc3c(O)ccc(O)c3c(=O)c2c1O [Compound 39, Garcixanthone C] |
